These are literature values, as cited in article PMC13179673 (European journal of pharmaceutical sciences : official …, 2025).

Molecules are shown by their SMILES. A value given as a limit tells only on which side of the number the result lay.

The conditions of data set [1]: biological pH at 37°C.
Data set [2] relates to OHT rabbit eyes. Set-up: method as in Behar-Cohen et al., 1996. Particulars: eyedrop, ref Behar-Cohen et al., 1996.

One may read the half-life as the time needed for the level to fall by half in the phase considered. As for `[NH-]c1c[n+](N2CCOCC2)no1` [SIN-1, linsidomine], the half-life in data set [1] is on record as below 1 h. Moreover, the “duration of IOP-lowering effect” value in data set [2] is reported as at most 3 h.
